Results from patent publication US20250186411A1, “Methods of Treating Disorders Associated with Overactivation of IKKB” (The United States Government as represented by the …, priority 2023, published 2025).
Several values for one entry are separate records, joined by “and”; a condition that tells them apart may be missing. Equal values may be shown once.

Experiments:
[1] = test system: KLF15 promoter (pEZX-FR03hKLF15p human podocytes); assay: Half maximal effective concentration (EC50) of KLF15 reporter activity; type: cell-based; settings: KLF15 reporter activity, dose-response; read-out: EC50
Method: The EC50 was determined using nonlinear regression and then choosing the equation of Sigmoidal function, 4PL method (X is log(concentration); or the equation of log(agonist) vs. response—variable slope).
To identify small molecule inducers of KLF15 expression in human podocytes, human podocytes were generated with a dual reporter, firefly luciferase directed at the KLF15 promoter region and renilla luciferase (pEZX-FR03hKLF15p). […] The positive controls were inducers of KLF15 expression, dexamethasone (DEX) and all-trans retinoic acid (atRA), and […] and cell-free wells served as negative controls.

[2] = test system: KLF15 promoter with mutation in the GRE (pEZX-FR03hKLF5p-mutant podocytes); assay: GR-mutant KLF15 reporter assay; type: cell-based, human; settings: as compared to DMSO
[3] = test system: human podocytes; assay: Cell viability of podocytes (renilla activity, MTS assay); type: cell-based
Method: Differentiated pEZX-FR03hKLF5p human podocytes were treated with 25 μg/ml lipopolysaccharide (LPS) or vehicle and 1 μM KLF15 agonist or vehicle control for 24 hours. Firefly and renilla luciferase assay were measured initially to determine relative KLF15 reporter activity.
Differentiated pEZX-FR03hKLF5p human podocytes were treated with 0.4 μg/ml adriamycin (ADR) or vehicle and 1 μM KLF15 agonist or vehicle control for 24 hours. Firefly and renilla luciferase assay were measured initially to determine relative KLF15 reporter activity.
To assess cell viability, the CellTiter 96® AQueous One Solution Reagent (Promega) was added to the culture media and plates were incubated for 2 hours at 37° C. with 5% CO2.

[4] = test system: FVB/n mice; assay: LPS-induced proteinuric murine model; type: in vivo, mouse
Method: In the LPS-induced proteinuric model, all 8-week-old FVB/n mice were initially treated with LPS [intraperitoneal (IP), 10 μg/g, Sigma-Aldrich] or sterile normal saline (IP) at 0- and 24-hour time points as previously described (17). […] Urine was collected and mice were euthanized 48 hours post-LPS treatment.
(§1) Urine albumin was quantified by ELISA using a kit from Bethyl Laboratory Inc. Urine creatinine levels were measured in the same samples using the Creatinine Colorimetric Assay Kit (500701; Cayman Chemical) as per manufacturer's protocol.
Briefly, mice were perfused with PBS containing 2.5 mg/ml iron oxide and 1% BSA. At the end of perfusion, kidneys were removed, decapsulated, minced into 1 mm^3 pieces, and digested in PBS containing 1 mg/ml collagenase A. Digested tissue was subsequently passed through a 100 μm cell strainer and collected by centrifugation. The pellet was resuspended in 1 ml PBS and glomeruli were collected using a magnet. The purity of glomeruli was verified under microscopy. Total RNA was isolated from kidney glomeruli of mice using the RNeasy Kit (Qiagen, Germantown, MD).
Total RNA from cells was extracted by using TRIzol (Life Technologies). First-strand cDNA was prepared from total RNA (up to 1.25 μg) using the SuperScript™ IV VILO™ Master Mix (Life Technologies), and cDNA was amplified in triplicate using PowerUp™ SYBR™ Green Master Mix on an ABI QuantStudio3 (Applied Biosystems). Primers for human and mouse genes were designed using NCBI Primer-BLAST and validated for efficiency before application (Table 1). Data were normalized to housekeeping genes (GAPDH or ACTB) and presented as a fold increase compared with RNA isolated from the control group using the ΔΔCT method.
Transmission Electron Microscopy (TEM) was done in the Central Microscopy Imaging Center at Stony Brook Medicine. Briefly, after embedding the kidney tissues in epoxy resin, ultrathin sections were stained with uranyl acetate and lead citrate, then mounted on a copper grid, and photographed under a FEI BioTwin G2 Transmission Electron Microscope with AMT XR-60 CCD digital Camera (FEI).

[5] = test system: FVB/n mice; assay: Nephrotoxic Serum Nephritis (NTS) model; type: in vivo, mouse
Method: In the Nephrotoxic Serum Nephritis (NTS) model, 8-week-old FVB/n mice were initially sensitized with an intraperitoneal injection of 0.5 mg of sheep IgG (IP, Jackson ImmunoResearch) with complete Freund's adjuvant (IP, Millipore Sigma). Five days later, mice were administered 100 μl of NTS (IP, ProbeTex), as previously described (Estrada et al. (2018) JCI Insight 3). […] Urine was collected and mice were euthanized at day 7 or day 14 post-NTS treatment.
as §1
(§2) Briefly formalin-fixed and paraffin embedded sections were deparaffinized, and endogenous peroxidase was inactivated with H2O2. All kidney sections from these mice were prepared in identical fashion. Immunofluorescence was performed using rabbit anti-KLF15, mouse anti-WT1 (Santa Cruz, SC-7385), rabbit anti-Synaptopodin (Sigma, SAB3500585), rabbit anti-p65 (Cell Signaling Tech, 8242S) antibodies. After washing, sections were incubated with the appropriate fluorophore-linked secondary antibody (Alexa Fluor 647 Donkey anti-mouse, Alexa Fluor 568 Donkey anti-rabbit antibodies, Life Technologies). After counter staining with Hoechst (Thermo Fisher Scientific), slides were mounted in Prolong Gold mounting media (Thermo Fisher Scientific) and photographed under a Nikon Eclipse Ni-E Fully Motorized Microscope System with a DS-Qi2 digital camera.
(§3) Quantification of KLF15 staining in the podocytes was determined by quantifying the intensity of KLF15 staining (optical density) in WT1+Hoechst staining using ImageJ 1.53c software (National Institute of Health, http://imagej.nih.gov/ij).
(§4) Mice were perfused with PBS, and the kidneys were fixed in 10% phosphate buffered formalin overnight and switched to 70% ethanol before processing for histology. Kidney tissue was embedded in paraffin by Stony Brook Medicine Research Histology Core Laboratory (RHCL)—Department of Pathology and 4-μm-thick sections were stained with periodic acid-Schiff (PAS), hematoxylin & eosin (H&E), and masson's trichrome (Sigma-Aldrich). Quantification of % FSGS was determined by renal pathology in a blinded fashion (Huntsman Cancer Institute-University of Utah Health).

[6] = test system: Tg26 mice; assay: HIV-1 transgenic (Tg26) model; type: in vivo, mouse
Method: as §1, §2, §3, §4

[7] = molecular target: T1, IKKβ (Homo sapiens, UniProt O14920)
Method: After the kinase reaction, an equal volume of ADP-Go™ Reagent is added to both terminate the kinase reaction and deplete the remaining ATP. Subsequently, the Detection Reagent is added to simultaneously convert ADP to ATP and measure the concentrations of newly synthesized ATP using a luciferase/luciferin reaction. The light generated is measured using a 96-well plate reader SpectraMax M3 (Molecular Devices). Luminescence can be correlated to ADP concentrations by using an ATP-to-ADP conversion curve.

[8] = test system: mice; settings: as compared to DMSO treatment
Text: Serum was subsequently collected and mice were euthanized for collection of kidney, liver, and heart tissue.

[9] = molecular target: T1, IKKβ; assay: Thermal shift assay; settings: BT503 1 μM, human podocytes
Method: Each tube was treated at a range of temperatures (40° C. to 52° C.) for 3 minutes using Eppendorf Mastercycler gradient temperature setting. Protein was subsequently extracted from cells using freeze-thaw cycle, and IKKβ and β-actin were detected using western blot.

T1 sequence (O14920 whole entry): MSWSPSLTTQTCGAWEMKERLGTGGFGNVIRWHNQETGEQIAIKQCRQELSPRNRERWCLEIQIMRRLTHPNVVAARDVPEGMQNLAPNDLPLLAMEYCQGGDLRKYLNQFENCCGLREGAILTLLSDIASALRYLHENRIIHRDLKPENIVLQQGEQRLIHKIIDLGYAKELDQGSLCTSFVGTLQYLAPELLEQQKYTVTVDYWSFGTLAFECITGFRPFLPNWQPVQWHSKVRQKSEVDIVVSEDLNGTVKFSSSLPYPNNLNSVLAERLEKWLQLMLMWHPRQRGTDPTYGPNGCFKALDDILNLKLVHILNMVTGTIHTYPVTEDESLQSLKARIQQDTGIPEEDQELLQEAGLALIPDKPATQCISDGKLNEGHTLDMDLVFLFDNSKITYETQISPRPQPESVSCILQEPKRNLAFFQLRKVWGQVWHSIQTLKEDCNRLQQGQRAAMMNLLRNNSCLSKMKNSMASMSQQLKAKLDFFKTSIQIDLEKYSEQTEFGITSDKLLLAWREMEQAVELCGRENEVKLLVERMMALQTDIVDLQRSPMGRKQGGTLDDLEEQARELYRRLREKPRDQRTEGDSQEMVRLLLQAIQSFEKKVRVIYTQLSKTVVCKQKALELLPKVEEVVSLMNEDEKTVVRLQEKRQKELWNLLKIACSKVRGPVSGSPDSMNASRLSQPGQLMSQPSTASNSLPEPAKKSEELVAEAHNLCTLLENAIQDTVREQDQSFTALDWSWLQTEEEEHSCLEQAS

In the case of `CSc1ccc(NC(=O)Nc2ccc(C)nc2)cc1` [BT503], the EC50 [1] is reported as ~7.1 nM and < 10 nM, the KLF15-mutant reporter activity [2] is reported as “induced KLF15 activity” and the “toxicity to human podocytes” value ([3]; analogue screen) is reported as “no observed toxicity”. The “renilla activity (cell viability) in the setting of LPS treatment” value ([3]; as compared to DMSO-treated podocytes) was “restored renilla activity”, the “Glomerular Klf15 and Wilms Tumor 1 (Wt1) expression” value ([4]; LPS conditions, vs DMSO-treated mice) was “restored” and the albuminuria ([4]; LPS proteinuric murine model, concurrent treatment, vs DMSO) was “attenuated albuminuria”. For the same compound, the “foot process effacement (podocyte injury)” value ([4]; LPS treatment) was “significantly restored”, the albuminuria ([5]; day 7 and 14 post-NTS treatment, vs DMSO) was “significantly less albuminuria” and the “p65 expression in the glomeruli” value ([5]; post-NTS treatment) was “attenuated”. For the same compound, the “glomerular injury (% of glomeruli with FSGS, extracapillary proliferation) and proteinaceous casts” value ([5]; vs DMSO) was “significantly reduced”, the glomerular synaptopodin expression ([5]; vs DMSO) was “restored” and the “interstitial fibrosis (masson's trichrome and α-SMA staining)” value ([5]; vs DMSO) was “less interstitial fibrosis”. The “podocyte number (WT1+ podocytes per glomerular cross-sectional area)” value ([5]; vs DMSO) was “restored the podocyte number”, the “p65 expression (kidney lysates)” value [6] was “reduced” and the albuminuria ([6]; daily for 14 days, vs DMSO) was “significantly mitigated the increase in albuminuria”. The “% of glomeruli with focal segmental and global GS lesions” value ([6]; vs DMSO) was “significantly reduced”, the glomerular synaptopodin expression ([6]; vs DMSO) was “restored” and the interstitial fibrosis ([6]; vs DMSO) was “reduced interstitial fibrosis”. The “kidney function (serum urea nitrogen and creatinine)” value ([6]; vs DMSO) was “improved kidney function”, the “podocyte number (WT1+ podocytes per glomerular cross-sectional area)” value ([6]; vs DMSO) was “preserved podocyte number” and the “inhibition of kinase activity at higher ATP concentrations” value ([7]; ATP 50 μM) was “mitigated”. For the same compound, the IC50 ([7]; read-out: IC50 (IKKβ kinase activity), IKBKB^WT) was 163 nM, the “aspartate aminotransferase (AST), alanine transaminase (ALT) levels” value [8] was “no significant difference” and the “histological changes in the kidney, heart, and liver tissue” value [8] was “no significant difference”. For the same compound, the “IKKβ stability (thermal shift)” value [9] was “IKKβ stability was reduced in DMSO as compared to BT503 treatment”.
